Reference: patent publication US9995734B2, “Human T cell line assay for evaluating the immunologic identity of glatiramer acetate preparations” (Mylan Inc., priority 2013, dated 2018)
Values joined by “and” are separate entries in the source; they are usually repeats but may differ in a detail not shown here. Equal entries are not always repeated.

System: panel of six GA-specific long-term human T-cell lines (222-2D8, 222-2F12, 165-F3C, 165-F6C, 205-1C4, 205-1F4)
Experiment: GA-specific human T-cell line panel assay (ATP proliferation): GA test lots and altered GA lots compared with Copaxone
Type: cell-based
Settings: for ATP Proliferation Assay, Mean / Proliferation (ATP assay), Mean: 4 days
Procedure: Proliferation assays, using the panel of six GA-specific long-term human T-cell lines listed in Table 78, were carried out to compare […] GA test lots, GMA/009/14 (GA Lot 009), GMA/010/14 (GA Lot 010), GMA/011/14 (GA Lot 011), GMA/012/14 (GA Lot 012), GMA/013/14 (GA Lot 013), GMA/014/14 (GA Lot 014), GA Lot 016, GMA/017/14 (GA Lot 017), GMA/018/14 (GA Lot 018), and GMA/070/14 (GA Lot 070), manufactured using standard methods, to a Copaxone reference lot.
Each T-cell line was restimulated using methods described above, using five concentrations of the reference antigen (0.5, 1, 2, 2.5, and 5 μg/ml Copaxone), the same five concentrations of test antigen (the nine GA test lots), and a no antigen control, in the presence of 5×10^4 mitomycin-treated autologous B-LCL. Proliferation was measured by ATP assay after 4 days of incubation with antigen, using methods described previously.
The percentages in the last column of each table were calculated as follows: Proliferation response to test antigen minus proliferation response to control (no antigen)÷proliferation response to reference antigen minus proliferation response to control (no antigen)
The panel of six GA-specific human T-cell lines listed in Table 78 above was used to test the immunological identity of altered GA lots to Copaxone.
Proliferation assays using the panel of six GA-specific T-cell lines (Table 77) were carried out, to compare negative GA lots 051F, 054F, 055F, 057F, 058F, 059F, and 060F (test lots), to Copaxone (reference lot). Each cell line was restimulated using 5 concentrations of reference antigen (Copaxone) and test antigen (the negative GA lots), including a no antigen control (in the presence of 5×10^4 mitomycin-treated autologous B-LCL). Proliferation was measured by ATP assay after 4 days of incubation with antigen, using methods described previously.
The percentages in the last column of each table were calculated as follows: Proliferation response to test antigen minus proliferation response to control (no antigen)÷proliferation response to reference antigen minus proliferation response to control (no antigen).

glatiramer acetate [COP]
ATP Proliferation Assay, Mean (T-cell line 165-F3C, 0.5 μg/mL): 4,783 | ATP Proliferation Assay, Mean (T-cell line 165-F3C, 1 μg/mL): 22,290 | ATP Proliferation Assay, Mean (T-cell line 165-F3C, 2 μg/mL): 53,771 | ATP Proliferation Assay, Mean (T-cell line 165-F3C, 2.5 μg/mL): 54,539 | ATP Proliferation Assay, Mean (T-cell line 165-F3C, 5 μg/mL): 58,110 | ATP Proliferation Assay, Mean (T-cell line 165-F6C, 0.5 μg/mL): 3,328 | ATP Proliferation Assay, Mean (T-cell line 165-F6C, 1 μg/mL): 4,620 | ATP Proliferation Assay, Mean (T-cell line 165-F6C, 2 μg/mL): 13,255 | ATP Proliferation Assay, Mean (T-cell line 165-F6C, 2.5 μg/mL): 18,726 | Mean, ATP proliferation assay (T-cell line 165-F6C, 5 μg/mL): 34,012 and 34,995 and 56,466 and 56,465 and 42,493 and 41,233 and 36,303 | ATP Proliferation Assay, Mean (T-cell line 165-F6C, 5 μg/mL): 38,653 | ATP Proliferation Assay, Mean (T-cell line 205-1C4, 0.5 μg/mL): 932 | ATP Proliferation Assay, Mean (T-cell line 205-1C4, 1 μg/mL): 2,481 | ATP Proliferation Assay, Mean (T-cell line 205-1C4, 2 μg/mL): 9,432 | ATP Proliferation Assay, Mean (T-cell line 205-1C4, 2.5 μg/mL): 13,744 | ATP Proliferation Assay, Mean (T-cell line 205-1C4, 5 μg/mL): 45,451 | ATP Proliferation Assay, Mean (T-cell line 205-1F4, 0.5 μg/mL): 548 | ATP Proliferation Assay, Mean (T-cell line 205-1F4, 1 μg/mL): 1,906 | ATP Proliferation Assay, Mean (T-cell line 205-1F4, 2 μg/mL): 9,959 | ATP Proliferation Assay, Mean (T-cell line 205-1F4, 2.5 μg/mL): 13,589 | ATP Proliferation Assay, Mean (T-cell line 205-1F4, 5 μg/mL): 18,491 | ATP Proliferation Assay, Mean (T-cell line 222-2D8, 0.5 μg/mL): 5,873 | ATP Proliferation Assay, Mean (T-cell line 222-2D8, 1 μg/mL): 14,017 | ATP Proliferation Assay, Mean (T-cell line 222-2D8, 2 μg/mL): 90,328 | ATP Proliferation Assay, Mean (T-cell line 222-2D8, 2.5 μg/mL): 129,878 | ATP Proliferation Assay, Mean (T-cell line 222-2D8, 5 μg/mL): 171,116 | ATP Proliferation Assay, Mean (T-cell line 222-2F12, 0.5 μg/mL): 10,879 | ATP Proliferation Assay, Mean (T-cell line 222-2F12, 1 μg/mL): 27,042 | ATP Proliferation Assay, Mean (T-cell line 222-2F12, 2 μg/mL): 105,024 | ATP Proliferation Assay, Mean (T-cell line 222-2F12, 2.5 μg/mL): 115,241 | ATP Proliferation Assay, Mean (T-cell line 222-2F12, 5 μg/mL): 129,291 | Proliferation (ATP assay), Mean (Table 95, T-cell line 165-F3C, GA conc. 0.5 μg/mL): 3,154 | Proliferation (ATP assay), Mean (Table 95, T-cell line 165-F3C, GA conc. 1 μg/mL): 9,050 | Proliferation (ATP assay), Mean (Table 95, T-cell line 165-F3C, GA conc. 2 μg/mL): 27,693 | Proliferation (ATP assay), Mean (Table 95, T-cell line 165-F3C, GA conc. 2.5 μg/mL): 28,018 | Proliferation (ATP assay), Mean (Table 95, T-cell line 165-F3C, GA conc. 5 μg/mL): 32,151 | Proliferation (ATP assay), Mean (Table 95, T-cell line 165-F6C, GA conc. 0.5 μg/mL): 863 | Proliferation (ATP assay), Mean (Table 95, T-cell line 165-F6C, GA conc. 1 μg/mL): 1,838 | Proliferation (ATP assay), Mean (Table 95, T-cell line 165-F6C, GA conc. 2 μg/mL): 8,163 | Proliferation (ATP assay), Mean (Table 95, T-cell line 165-F6C, GA conc. 2.5 μg/mL): 11,665 | Proliferation (ATP assay), Mean (Table 95, T-cell line 165-F6C, GA conc. 5 μg/mL): 30,422 | Proliferation (ATP assay), Mean (Table 95, T-cell line 205-1C4, GA conc. 0.5 μg/mL): 13,267 | Proliferation (ATP assay), Mean (Table 95, T-cell line 205-1C4, GA conc. 1 μg/mL): 26,848 | Proliferation (ATP assay), Mean (Table 95, T-cell line 205-1C4, GA conc. 2 μg/mL): 142,528 | Proliferation (ATP assay), Mean (Table 95, T-cell line 205-1C4, GA conc. 2.5 μg/mL): 159,785 | Proliferation (ATP assay), Mean (Table 95, T-cell line 205-1C4, GA conc. 5 μg/mL): 171,452 | Proliferation (ATP assay), Mean (Table 95, T-cell line 205-1F4, GA conc. 0.5 μg/mL): 6,984 | Proliferation (ATP assay), Mean (Table 95, T-cell line 205-1F4, GA conc. 1 μg/mL): 15,174 | Proliferation (ATP assay), Mean (Table 95, T-cell line 205-1F4, GA conc. 2 μg/mL): 46,598 | Proliferation (ATP assay), Mean (Table 95, T-cell line 205-1F4, GA conc. 2.5 μg/mL): 51,372 | Proliferation (ATP assay), Mean (Table 95, T-cell line 205-1F4, GA conc. 5 μg/mL): 61,252 | Proliferation (ATP assay), Mean (Table 95, T-cell line 222-2D8, GA conc. 0.5 μg/mL): 13,958 | Proliferation (ATP assay), Mean (Table 95, T-cell line 222-2D8, GA conc. 1 μg/mL): 87,807 | Proliferation (ATP assay), Mean (Table 95, T-cell line 222-2D8, GA conc. 2 μg/mL): 142,231 | Proliferation (ATP assay), Mean (Table 95, T-cell line 222-2D8, GA conc. 2.5 μg/mL): 140,804 | Proliferation (ATP assay), Mean (Table 95, T-cell line 222-2D8, GA conc. 5 μg/mL): 147,182 | Proliferation (ATP assay), Mean (Table 95, T-cell line 222-2F12, GA conc. 0.5 μg/mL): 3,580 | Proliferation (ATP assay), Mean (Table 95, T-cell line 222-2F12, GA conc. 1 μg/mL): 42,304 | Proliferation (ATP assay), Mean (Table 95, T-cell line 222-2F12, GA conc. 2 μg/mL): 108,046 | Proliferation (ATP assay), Mean (Table 95, T-cell line 222-2F12, GA conc. 2.5 μg/mL): 115,182 | Proliferation (ATP assay), Mean (Table 95, T-cell line 222-2F12, GA conc. 5 μg/mL): 123,169 | Proliferation (ATP assay), Mean (Table 96, T-cell line 165-F3C, GA conc. 0.5 μg/mL): 2,577 | Proliferation (ATP assay), Mean (Table 96, T-cell line 165-F3C, GA conc. 1 μg/mL): 5,743 | Proliferation (ATP assay), Mean (Table 96, T-cell line 165-F3C, GA conc. 2 μg/mL): 16,415 | Proliferation (ATP assay), Mean (Table 96, T-cell line 165-F3C, GA conc. 2.5 μg/mL): 20,446 | Proliferation (ATP assay), Mean (Table 96, T-cell line 165-F3C, GA conc. 5 μg/mL): 32,600 | Proliferation (ATP assay), Mean (Table 96, T-cell line 165-F6C, GA conc. 0.5 μg/mL): 2,228 | Proliferation (ATP assay), Mean (Table 96, T-cell line 165-F6C, GA conc. 1 μg/mL): 4,270 | Proliferation (ATP assay), Mean (Table 96, T-cell line 165-F6C, GA conc. 2 μg/mL): 15,430 | Proliferation (ATP assay), Mean (Table 96, T-cell line 165-F6C, GA conc. 2.5 μg/mL): 28,942 | Proliferation (ATP assay), Mean (Table 96, T-cell line 165-F6C, GA conc. 5 μg/mL): 45,836 | Proliferation (ATP assay), Mean (Table 96, T-cell line 205-1C4, GA conc. 0.5 μg/mL): 11,790 | Proliferation (ATP assay), Mean (Table 96, T-cell line 205-1C4, GA conc. 1 μg/mL): 26,004 | Proliferation (ATP assay), Mean (Table 96, T-cell line 205-1C4, GA conc. 2 μg/mL): 102,672 | Proliferation (ATP assay), Mean (Table 96, T-cell line 205-1C4, GA conc. 2.5 μg/mL): 124,300 | Proliferation (ATP assay), Mean (Table 96, T-cell line 205-1C4, GA conc. 5 μg/mL): 129,908 | Proliferation (ATP assay), Mean (Table 96, T-cell line 205-1F4, GA conc. 0.5 μg/mL): 8,158 | Proliferation (ATP assay), Mean (Table 96, T-cell line 205-1F4, GA conc. 1 μg/mL): 17,491 | Proliferation (ATP assay), Mean (Table 96, T-cell line 205-1F4, GA conc. 2 μg/mL): 51,613 | Proliferation (ATP assay), Mean (Table 96, T-cell line 205-1F4, GA conc. 2.5 μg/mL): 60,244 | Proliferation (ATP assay), Mean (Table 96, T-cell line 205-1F4, GA conc. 5 μg/mL): 54,345 | Proliferation (ATP assay), Mean (Table 96, T-cell line 222-2D8, GA conc. 0.5 μg/mL): 2,785 | Proliferation (ATP assay), Mean (Table 96, T-cell line 222-2D8, GA conc. 1 μg/mL): 28,970 | Proliferation (ATP assay), Mean (Table 96, T-cell line 222-2D8, GA conc. 2 μg/mL): 76,089 | Proliferation (ATP assay), Mean (Table 96, T-cell line 222-2D8, GA conc. 2.5 μg/mL): 90,666 | Proliferation (ATP assay), Mean (Table 96, T-cell line 222-2D8, GA conc. 5 μg/mL): 99,491 | Proliferation (ATP assay), Mean (Table 96, T-cell line 222-2F12, GA conc. 0.5 μg/mL): 2,404 | Proliferation (ATP assay), Mean (Table 96, T-cell line 222-2F12, GA conc. 1 μg/mL): 11,359 | Proliferation (ATP assay), Mean (Table 96, T-cell line 222-2F12, GA conc. 2 μg/mL): 78,880 | Proliferation (ATP assay), Mean (Table 96, T-cell line 222-2F12, GA conc. 2.5 μg/mL): 95,825 | Proliferation (ATP assay), Mean (Table 96, T-cell line 222-2F12, GA conc. 5 μg/mL): 107,930
